# Data: patent US20260217687A1 (NeoPhore Limited, priority 2023, published 2026)
# pIC50: −log10 of the molar value.
# Target: T1, recombinant N-terminal MLH1 (residues 15-340) (Homo sapiens, UniProt P40692)
# T1 construct: recombinant N-terminal MLH1 (residues 15-340)
# T1 sequence (P40692 15-340): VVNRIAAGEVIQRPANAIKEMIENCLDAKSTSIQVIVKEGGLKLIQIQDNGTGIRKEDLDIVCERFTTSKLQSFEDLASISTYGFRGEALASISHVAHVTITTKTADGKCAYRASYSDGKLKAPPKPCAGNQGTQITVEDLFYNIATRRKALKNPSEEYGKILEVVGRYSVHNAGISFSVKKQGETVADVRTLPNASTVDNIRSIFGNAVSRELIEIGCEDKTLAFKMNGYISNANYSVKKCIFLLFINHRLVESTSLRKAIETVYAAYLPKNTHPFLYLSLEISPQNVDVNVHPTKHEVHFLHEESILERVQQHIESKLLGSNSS
# Assay: Fluorescence Polarisation Assay for MLH1
# Type: binding
# Conditions: 100 nM N-terminal MLH1, 5 nM probe compound
# Outline: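 Fluorescence polarisation displacement: 100 nM MLH1 (15-340) preincubated 30 min at room temperature with compound, then 5 nM rhodamine-labelled probe added and read immediately. Buffer 25 mM HEPES pH 7.5, 250 mM NaCl, 10 mM MgCl2, 0.01% Triton X-100, 5 mM DTT; normalised to no-inhibitor and no-enzyme controls.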
row,SMILES,pIC50
1,CN(C)Cc1ccc2c(n1)CN(C(=O)c1c(O)cc(Cl)cc1OCc1ccccc1)C2 [Example 10.21],5.00 to 6.00
2,"CN(C)CCOc1ccc2c(c1)CCN(C(=O)c1c(O)cc(Cl)cc1OCc1ccccc1)C2 [Example 10.22, (2-(Benzyloxy)-4-chloro-6-hydroxyphenyl)(6-(2-(dimethylamino)ethoxy)-3,4-dihydroisoquinolin-2(1H)-yl)methanone]",5.00 to 6.00
3,"CN(C)CCOc1ccc2c(c1)CCN(C(=O)c1c(O)cc(F)cc1OCc1ccccc1)C2 [Example 10.24, (2-(Benzyloxy)-4-fluoro-6-hydroxyphenyl)(6-(2-(dimethylamino)ethoxy)-3,4-dihydroisoquinolin-2(1H)-yl)methanone]",5.00 to 6.00
4,"CN(C)CCOc1ccc2c(c1)CCN(C(=O)c1c(O)cc(C#N)cc1OCc1ccccc1)C2 [Example 10.29, 3-(Benzyloxy)-4-(6-(2-(dimethylamino)ethoxy)-1,2,3,4-tetrahydroisoquinoline-2-carbonyl)-5-hydroxybenzonitrile]",5.00 to 6.00
5,"N#Cc1cc(O)c(C(=O)N2Cc3ccc(OC4CCOCC4)cc3C2)c(OCc2ccccc2)c1 [Example 10.36, 3-(Benzyloxy)-5-hydroxy-4-(5-((tetrahydro-2H-pyran-4-yl)oxy)isoindoline-2-carbonyl)benzonitrile]",6.00 to 7.00
6,"CN1CC(Oc2ccc3c(c2)CN(C(=O)c2c(O)cc(C#N)cc2OCc2ccccn2)C3)C1 [Example 10.37, 3-Hydroxy-4-(5-((1-methylazetidin-3-yl)oxy)isoindoline-2-carbonyl)-5-(pyridin-2-ylmethoxy)benzonitrile]",5.00 to 6.00
7,"N#Cc1cc(O)c(C(=O)N2Cc3cccc(NC4COC4)c3C2)c(OCc2ccccn2)c1 [Example 10.38, 3-Hydroxy-4-(4-(oxetan-3-ylamino)isoindoline-2-carbonyl)-5-(pyridin-2-ylmethoxy)benzonitrile]",5.00 to 6.00
8,"N#Cc1cc(O)c(C(=O)N2Cc3cccc(N[C@H]4CCOC4)c3C2)c(OCc2ccccn2)c1 [Example 10.39, (S)-3-Hydroxy-5-(pyridin-2-ylmethoxy)-4-(4-((tetrahydrofuran-3-yl)amino)isoindoline-2-carbonyl)benzonitrile]",6.00 to 7.00
9,"N#Cc1cc(O)c(C(=O)N2Cc3cccc(N[C@H]4CCOC4)c3C2)c(OCc2ccccc2)c1 [Example 12, (S)-3-(Benzyloxy)-5-hydroxy-4-(4-((tetrahydrofuran-3-yl)amino)isoindoline-2-carbonyl)benzonitrile]",6.00 to 7.00
10,"COc1cc(C#N)cc(O)c1C(=O)N1Cc2cccc(N[C@H]3CCOC3)c2C1 [Example 12.1, (S)-3-Hydroxy-5-methoxy-4-(4-((tetrahydrofuran-3-yl)amino)isoindoline-2-carbonyl)benzonitrile]",5.00 to 6.00
11,"N#Cc1cc(O)c(C(=O)N2Cc3cccc(N[C@H]4CCOC4)c3C2)c(OCC2CC2)c1 [Example 12.2, (S)-3-(Cyclopropylmethoxy)-5-hydroxy-4-(4-((tetrahydrofuran-3-yl)amino)isoindoline-2-carbonyl)benzonitrile]",5.00 to 6.00
12,"N#Cc1cc(O)c(C(=O)N2Cc3cccc(N[C@@H]4CCOC4)c3C2)c(OCc2ccccc2)c1 [Example 12.3, (R)-3-(Benzyloxy)-5-hydroxy-4-(4-((tetrahydrofuran-3-yl)amino)isoindoline-2-carbonyl)benzonitrile]",5.00 to 6.00
13,"N#Cc1cc(O)c(C(=O)N2Cc3ccccc3C2)c(OCc2ccccc2)c1 [Example 12.4, 3-(Benzyloxy)-5-hydroxy-4-(isoindoline-2-carbonyl)benzonitrile]",5.00 to 6.00
14,"COc1ccc2c(c1)CN(C(=O)c1c(O)cc(C#N)cc1OCc1ccccc1)C2 [Example 13, 3-(Benzyloxy)-5-hydroxy-4-(5-methoxyisoindoline-2-carbonyl)benzonitrile]",5.00 to 6.00
15,"CN(C)CCOc1cc2c(c(N[C@@H]3CCOC3)c1)CN(C(=O)c1c(O)cc(C#N)cc1OCc1ccccc1)CC2 [Example 14, (R)-3-(Benzyloxy)-4-(6-(2-(dimethylamino)ethoxy)-8-((tetrahydrofuran-3-yl)amino)-1,2,3,4-tetrahydroisoquinoline-2-carbonyl)-5-hydroxybenzonitrile]",6.00 to 7.00
16,"CC(=O)N1CC(Nc2cccc3c2CN(C(=O)c2c(O)cc(C#N)cc2OCc2ccccc2)C3)C1 [Example 16, 4-(4-((1-Acetylazetidin-3-yl)amino)isoindoline-2-carbonyl)-3-(benzyloxy)-5-hydroxybenzonitrile]",6.00 to 7.00
17,"N#Cc1cc(O)c(C(=O)N2CCc3cccc(N[C@H]4CCOC4)c3C2)c(OCc2ccccc2)c1 [Example 17, (S)-3-(Benzyloxy)-5-hydroxy-4-(8-((tetrahydrofuran-3-yl)amino)-1,2,3,4-tetrahydroisoquinoline-2-carbonyl)benzonitrile]",6.00 to 7.00
18,"CN(C)CCOc1cc2c(c(N[C@@H]3CCOC3)c1)CN(C(=O)c1c(O)cc(C#N)cc1OCc1ccccc1)C2 [Example 18, (R)-3-(Benzyloxy)-4-(6-(2-(dimethylamino)ethoxy)-4-((tetrahydrofuran-3-yl)amino)isoindoline-2-carbonyl)-5-hydroxybenzonitrile]",6.00 to 7.00
19,"CN(C)CCOc1cc2c(c(N[C@H]3CCOC3)c1)CN(C(=O)c1c(O)cc(C#N)cc1OCc1ccccc1)C2 [Example 19, (S)-3-(Benzyloxy)-4-(6-(2-(dimethylamino)ethoxy)-4-((tetrahydrofuran-3-yl)amino)isoindoline-2-carbonyl)-5-hydroxybenzonitrile]",6.00 to 7.00

# Now from value to molecule:
row,pIC50,SMILES
1,6.00 to 7.00,"CN1CC(Nc2cccc3c2CN(C(=O)c2c(O)cc(Cl)cc2OCc2ccccc2)C3)C1 [Example 10.20, (2-(Benzyloxy)-4-chloro-6-hydroxyphenyl)(4-((1-methylazetidin-3-yl)amino)isoindolin-2-yl)methanone]"
2,6.00 to 7.00,"CC(=O)N1CC(Nc2cccc3c2CN(C(=O)c2c(O)cc(F)cc2OCc2ccccc2)C3)C1 [Example 10.23, 1-(3-((2-(2-(Benzyloxy)-4-fluoro-6-hydroxybenzoyl)isoindolin-4-yl)amino)azetidin-1-yl)ethan-1-one]"
3,6.00 to 7.00,"N#Cc1cc(O)c(C(=O)N2Cc3cccc(NC4COC4)c3C2)c(OCc2ccccc2)c1 [Example 10.26, 3-(Benzyloxy)-5-hydroxy-4-(4-(oxetan-3-ylamino)isoindoline-2-carbonyl)benzonitrile]"
4,6.00 to 7.00,"CN1CC[C@H](Nc2cccc3c2CN(C(=O)c2c(O)cc(C#N)cc2OCc2ccccc2)C3)C1=O [Example 10.27, (S)-3-(Benzyloxy)-5-hydroxy-4-(4-((1-methyl-2-oxopyrrolidin-3-yl)amino)isoindoline-2-carbonyl)benzonitrile]"
5,6.00 to 7.00,"CN1CC[C@@H](Nc2cccc3c2CN(C(=O)c2c(O)cc(C#N)cc2OCc2ccccc2)C3)C1=O [Example 10.28, (R)-3-(benzyloxy)-5-hydroxy-4-(4-((1-methyl-2-oxopyrrolidin-3-yl)amino)isoindoline-2-carbonyl)benzonitrile]"
6,6.00 to 7.00,"CN1CC[C@@H](Oc2ccc3c(c2)CN(C(=O)c2c(O)cc(C#N)cc2OCc2ccccc2)C3)C1 [Example 10.30, (R)-3-(Benzyloxy)-5-hydroxy-4-(5-((1-methylpyrrolidin-3-yl)oxy)isoindoline-2-carbonyl)benzonitrile]"
7,6.00 to 7.00,"CN1CC[C@H](Oc2ccc3c(c2)CN(C(=O)c2c(O)cc(C#N)cc2OCc2ccccc2)C3)C1 [Example 10.31, (S)-3-(Benzyloxy)-5-hydroxy-4-(5-((1-methylpyrrolidin-3-yl)oxy)isoindoline-2-carbonyl)benzonitrile]"
8,6.00 to 7.00,"CN1CC(Oc2ccc3c(c2)CN(C(=O)c2c(O)cc(C#N)cc2OCc2ccccc2)C3)C1 [Example 10.32, 3-(Benzyloxy)-5-hydroxy-4-(5-((1-methylazetidin-3-yl)oxy)isoindoline-2-carbonyl)benzonitrile]"
9,6.00 to 7.00,"CN1CCC(Oc2ccc3c(c2)CN(C(=O)c2c(O)cc(C#N)cc2OCc2ccccc2)C3)CC1 [Example 10.33, 3-(Benzyloxy)-5-hydroxy-4-(5-((1-methylpiperidin-4-yl)oxy)isoindoline-2-carbonyl)benzonitrile]"
10,6.00 to 7.00,"CN1CCN(Cc2ccc3c(c2)CN(C(=O)c2c(O)cc(C#N)cc2OCc2ccccc2)C3)CC1 [Example 10.34, 3-(Benzyloxy)-5-hydroxy-4-(5-((4-methylpiperazin-1-yl)methyl)isoindoline-2-carbonyl)benzonitrile]"
11,6.00 to 7.00,"COCCOc1ccc2c(c1)CN(C(=O)c1c(O)cc(C#N)cc1OCc1ccccc1)C2 [Example 10.35, 3-(Benzyloxy)-5-hydroxy-4-(5-(2-methoxyethoxy)isoindoline-2-carbonyl)benzonitrile]"
12,> 7.00,"CN(C)CCOc1cc2c(c(N[C@H]3CCOC3)c1)CN(C(=O)c1c(O)cc(C#N)cc1OCc1ccccc1)CC2 [Example 15, (S)-3-(Benzyloxy)-4-(6-(2-(dimethylamino)ethoxy)-8-((tetrahydrofuran-3-yl)amino)-1,2,3,4-tetrahydroisoquinoline-2-carbonyl)-5-hydroxybenzonitrile]"
13,> 7.00,"CN(C)CCOc1cc2c(c(N[C@@H]3CCOC3)c1)CN(C(=O)c1c(O)cc(Cl)cc1OCc1ccccc1)CC2 [Example 21, (R)-(2-(Benzyloxy)-4-chloro-6-hydroxyphenyl)(6-(2-(dimethylamino)ethoxy)-8-((tetrahydrofuran-3-yl)amino)-3,4-dihydroisoquinolin-2(1H)-yl)methanone]"
